# Laboratory results reported in ChEMBL document CHEMBL4007422 (J Med Chem, 2017).
# Active and inactive are the calls of the source. The calls are words filed in the database; no cut-off is given here.
# Experiments:
# [1] = target: 5-hydroxytryptamine receptor 6 (Homo sapiens, UniProt P50406); test: Displacement of [3H]-LSD from recombinant human 5-HT6 receptor expressed in HEK293 cells after 60 mins; assay type: cell-based
# [2] = target: T1, 5-hydroxytryptamine receptor 1A (Homo sapiens) (UniProt P08908); test: Displacement of [3H]-8-OH-DPAT from recombinant human 5-HT1A receptor expressed in HEK293 EBNA cell membranes after 120 mins by microbeta scintillation counting analysis
# T1 sequence (whole entry): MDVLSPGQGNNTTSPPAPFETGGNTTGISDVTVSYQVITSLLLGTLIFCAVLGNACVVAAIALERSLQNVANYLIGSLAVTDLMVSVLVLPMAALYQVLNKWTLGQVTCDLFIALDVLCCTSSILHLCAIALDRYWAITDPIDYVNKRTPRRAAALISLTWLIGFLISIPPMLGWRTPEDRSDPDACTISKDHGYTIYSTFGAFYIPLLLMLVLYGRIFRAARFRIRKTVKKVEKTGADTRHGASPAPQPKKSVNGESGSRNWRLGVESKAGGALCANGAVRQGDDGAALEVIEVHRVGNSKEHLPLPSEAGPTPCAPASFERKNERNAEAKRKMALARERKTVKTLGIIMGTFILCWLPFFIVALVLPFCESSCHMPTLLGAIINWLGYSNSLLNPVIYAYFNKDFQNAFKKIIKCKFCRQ
# Cytochrome P450 3A4 = Cytochrome P450 3A4 (Homo sapiens, UniProt P08684)
# [3] = target: 5-hydroxytryptamine receptor 7 (Rattus norvegicus) (UniProt P32305); test: Binding affinity to recombinant rat 5-HT7 receptor expressed in CHOK1 cells assessed as inhibition of 5-HT stimulated cAMP accumulation after 4 hrs by luciferase reporter gene assay; assay type: cell-based
# [4] = target: 5-hydroxytryptamine receptor 4 (Homo sapiens) (UniProt Q13639); test: Displacement of [3H]-GR113808 from recombinant human 5-HT4B receptor expressed in Chem1 cell membranes after 120 mins by microbeta scintillation counting analysis
# [5] = Oral bioavailability in Wistar rat at 10 mg/kg by LC-MS/MS analysis; assay type: ADME, organism-based; details: Wistar, in vivo
# [6] = target: T2, 5-hydroxytryptamine receptor 2C (Homo sapiens) (UniProt P28335); test: Displacement of [3H]-Mesulergine from recombinant human 5-HT2C receptor expressed in HEK293 cell membranes after 180 mins by microbeta scintillation counting analysis
# T2 sequence (whole entry): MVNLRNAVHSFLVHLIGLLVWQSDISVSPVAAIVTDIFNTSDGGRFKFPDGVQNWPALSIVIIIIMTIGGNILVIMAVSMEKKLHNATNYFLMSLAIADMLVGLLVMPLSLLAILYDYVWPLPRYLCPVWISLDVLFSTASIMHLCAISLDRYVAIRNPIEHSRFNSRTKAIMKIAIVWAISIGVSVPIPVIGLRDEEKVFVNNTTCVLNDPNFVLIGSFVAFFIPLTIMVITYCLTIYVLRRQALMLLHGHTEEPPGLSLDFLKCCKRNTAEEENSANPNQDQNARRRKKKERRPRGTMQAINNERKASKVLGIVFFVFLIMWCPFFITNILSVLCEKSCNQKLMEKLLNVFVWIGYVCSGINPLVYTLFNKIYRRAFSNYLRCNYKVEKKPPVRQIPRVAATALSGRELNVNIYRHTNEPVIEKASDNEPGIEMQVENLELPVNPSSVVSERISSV
# [7] = target: 5-hydroxytryptamine receptor 2A (Homo sapiens) (UniProt P28223); test: Displacement of [3H]-Ketanserine from recombinant human 5-HT2A receptor expressed in CHOK1 cell membranes after 60 mins by microbeta scintillation counting analysis
# [8] = Cmax in Wistar rat at 10 mg/kg, po by LC-MS/MS analysis; assay type: ADME, organism-based; set-up: dose 10 mg/kg, route oral; details: in vivo
# [9] = Half life in Wistar rat at 10 mg/kg, iv by LC-MS/MS analysis; assay type: ADME, organism-based; details: in vivo
# [10] = AUC (0 to t) in Wistar rat at 10 mg/kg, po by LC-MS/MS analysis; assay type: ADME, organism-based; details: Wistar, in vivo
# [11] = Apparent volume of distribution in Wistar rat at 10 mg/kg, iv by LC-MS/MS analysis; assay type: ADME, organism-based; details: in vivo, read-out: Vz
# [12] = Clearance in Wistar rat at 10 mg/kg, iv by LC-MS/MS analysis; assay type: ADME, organism-based; details: in vivo
# Cytochrome P450 2D6 = Cytochrome P450 2D6 (Homo sapiens, UniProt P10635); test: Inhibition of CYP2D6 in human liver microsomes in presence of NADPH by LC-MS/MS analysis
# Cytochrome P450 2D6, sequence (P10635 whole entry): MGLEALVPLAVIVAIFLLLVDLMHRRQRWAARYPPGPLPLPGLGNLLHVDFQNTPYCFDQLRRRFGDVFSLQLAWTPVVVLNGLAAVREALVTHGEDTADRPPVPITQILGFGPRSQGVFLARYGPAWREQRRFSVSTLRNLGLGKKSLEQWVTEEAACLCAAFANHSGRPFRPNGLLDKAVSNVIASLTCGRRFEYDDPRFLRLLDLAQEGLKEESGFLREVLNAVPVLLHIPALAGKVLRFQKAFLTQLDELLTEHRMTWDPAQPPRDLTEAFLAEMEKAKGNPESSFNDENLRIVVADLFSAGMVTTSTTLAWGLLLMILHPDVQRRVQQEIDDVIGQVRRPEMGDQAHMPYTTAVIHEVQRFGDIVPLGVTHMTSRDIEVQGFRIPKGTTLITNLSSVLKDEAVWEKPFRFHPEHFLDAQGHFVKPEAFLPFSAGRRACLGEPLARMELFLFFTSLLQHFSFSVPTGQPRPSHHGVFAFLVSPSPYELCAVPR
# 5-hydroxytryptamine receptor 6, sequence (P50406 whole entry): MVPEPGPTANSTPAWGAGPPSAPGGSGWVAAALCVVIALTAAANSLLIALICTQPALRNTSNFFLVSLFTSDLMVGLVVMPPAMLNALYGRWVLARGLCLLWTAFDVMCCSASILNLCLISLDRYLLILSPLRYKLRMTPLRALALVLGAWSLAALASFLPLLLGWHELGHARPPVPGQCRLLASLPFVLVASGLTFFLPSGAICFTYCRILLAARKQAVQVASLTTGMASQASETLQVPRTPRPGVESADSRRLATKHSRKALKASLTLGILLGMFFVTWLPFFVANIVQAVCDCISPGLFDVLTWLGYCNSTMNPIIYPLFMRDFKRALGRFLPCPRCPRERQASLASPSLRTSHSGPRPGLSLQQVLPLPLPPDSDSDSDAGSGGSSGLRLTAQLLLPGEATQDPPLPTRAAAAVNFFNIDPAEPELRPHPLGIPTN
# Cytochrome P450 3A4, sequence (P08684 whole entry): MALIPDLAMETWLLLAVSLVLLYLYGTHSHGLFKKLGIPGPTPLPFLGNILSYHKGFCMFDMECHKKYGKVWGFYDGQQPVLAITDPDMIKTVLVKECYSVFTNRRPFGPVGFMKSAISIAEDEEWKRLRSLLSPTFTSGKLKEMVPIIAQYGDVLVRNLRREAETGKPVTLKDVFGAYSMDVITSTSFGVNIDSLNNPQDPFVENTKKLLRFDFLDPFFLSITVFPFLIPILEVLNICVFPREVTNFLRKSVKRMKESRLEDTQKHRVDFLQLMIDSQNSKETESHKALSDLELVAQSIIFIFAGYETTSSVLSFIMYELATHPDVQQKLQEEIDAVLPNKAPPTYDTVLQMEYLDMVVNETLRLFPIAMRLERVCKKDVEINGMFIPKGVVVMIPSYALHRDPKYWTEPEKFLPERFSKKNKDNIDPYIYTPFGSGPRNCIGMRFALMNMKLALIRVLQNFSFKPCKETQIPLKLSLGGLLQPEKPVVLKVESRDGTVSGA
# 5-hydroxytryptamine receptor 7 (Rattus norvegicus), sequence (P32305 whole entry): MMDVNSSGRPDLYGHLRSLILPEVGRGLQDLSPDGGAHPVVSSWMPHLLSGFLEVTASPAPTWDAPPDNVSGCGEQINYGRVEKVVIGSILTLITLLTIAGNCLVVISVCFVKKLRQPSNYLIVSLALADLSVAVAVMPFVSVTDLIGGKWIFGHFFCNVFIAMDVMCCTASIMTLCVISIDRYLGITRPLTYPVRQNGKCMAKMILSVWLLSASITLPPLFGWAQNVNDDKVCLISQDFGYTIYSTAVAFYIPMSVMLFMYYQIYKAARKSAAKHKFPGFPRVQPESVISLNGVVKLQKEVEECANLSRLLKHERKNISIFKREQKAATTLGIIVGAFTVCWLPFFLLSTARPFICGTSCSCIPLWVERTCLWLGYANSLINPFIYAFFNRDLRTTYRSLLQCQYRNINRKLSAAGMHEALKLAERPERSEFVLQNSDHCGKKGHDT
# 5-hydroxytryptamine receptor 4 (Homo sapiens), sequence (Q13639 whole entry): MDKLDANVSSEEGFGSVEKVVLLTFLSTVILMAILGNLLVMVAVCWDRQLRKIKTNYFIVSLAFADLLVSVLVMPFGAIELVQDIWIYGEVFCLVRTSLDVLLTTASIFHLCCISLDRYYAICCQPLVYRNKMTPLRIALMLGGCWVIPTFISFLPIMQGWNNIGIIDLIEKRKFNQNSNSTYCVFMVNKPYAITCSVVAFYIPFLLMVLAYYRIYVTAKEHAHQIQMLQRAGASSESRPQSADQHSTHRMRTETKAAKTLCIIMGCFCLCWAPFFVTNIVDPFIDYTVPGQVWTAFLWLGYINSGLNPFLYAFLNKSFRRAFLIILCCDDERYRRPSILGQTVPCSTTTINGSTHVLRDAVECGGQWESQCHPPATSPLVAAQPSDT
# 5-hydroxytryptamine receptor 2A (Homo sapiens), sequence (P28223 whole entry): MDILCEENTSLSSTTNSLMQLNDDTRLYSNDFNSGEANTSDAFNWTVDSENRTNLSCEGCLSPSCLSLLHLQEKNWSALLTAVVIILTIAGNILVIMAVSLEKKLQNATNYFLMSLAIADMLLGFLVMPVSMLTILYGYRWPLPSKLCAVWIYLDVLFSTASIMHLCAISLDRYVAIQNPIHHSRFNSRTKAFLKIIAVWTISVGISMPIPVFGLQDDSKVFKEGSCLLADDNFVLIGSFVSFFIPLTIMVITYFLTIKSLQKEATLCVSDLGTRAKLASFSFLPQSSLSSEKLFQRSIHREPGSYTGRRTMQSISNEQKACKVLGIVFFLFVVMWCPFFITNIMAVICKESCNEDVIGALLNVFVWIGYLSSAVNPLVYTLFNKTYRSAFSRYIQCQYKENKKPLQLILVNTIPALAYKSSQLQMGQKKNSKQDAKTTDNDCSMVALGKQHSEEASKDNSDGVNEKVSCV
Ki [1],Compound,other results
36.1 nM,COc1ccc2c(CN3CCN(C)CC3)cn(S(=O)(=O)c3ccc(C(C)C)cc3)c2c1,
277 nM,CN1CCN(Cc2cn(S(=O)(=O)c3ccccc3)c3ncccc23)CC1,
36.3 nM,CC(C)Oc1ccc2c(c1)c(CN1CCN(C)CC1)cn2S(=O)(=O)c1ccccc1Br,
239 nM,COc1ccc2c(CN3CCN(C)CC3)cn(S(=O)(=O)c3ccc(F)cc3)c2c1,
23.5 nM,CN1CCN(Cc2cn(S(=O)(=O)c3ccccc3Br)c3cccc(Cl)c23)CC1,
17.5 nM,CN1CCN(Cc2cn(S(=O)(=O)c3ccc(F)cc3)c3ccc(Cl)cc23)CC1,
9.2 nM,CN1CCN(Cc2cn(S(=O)(=O)c3ccc(Br)cc3)c3ccc(F)cc23)CC1,
55.6 nM,Cc1c(CN2CCN(C)CC2)c2ccccc2n1S(=O)(=O)c1ccc(F)cc1,
6.9 nM,COc1ccc2c(c1)c(CN1CCNCC1)cn2S(=O)(=O)c1ccc(F)cc1,
20 nM,CCN1CCN(Cc2cn(S(=O)(=O)c3ccc(F)cc3)c3ccc(OC)cc23)CC1,
326 nM,CN1CCN(Cc2cn(C(=O)c3ccccc3Br)c3ccc(F)cc23)CC1,
27.6 nM,CC(C)c1ccc(S(=O)(=O)n2cc(CN3CCN(C)CC3)c3cc(Br)ccc32)cc1,
365 nM,O=C(c1ccccc1)N1CCN(Cc2cn(S(=O)(=O)c3ccccc3Br)c3ccccc23)CC1,
14.3 nM,COc1cccc2c1c(CN1CCN(C)CC1)cn2S(=O)(=O)c1ccccc1Br,
348 nM,COc1ccc2c(c1)c(CN1CCN(CCF)CC1)cn2S(=O)(=O)c1ccccc1Br,
59.7 nM,CN1CCN(Cc2cn(S(=O)(=O)c3ccc(Br)cc3)c3cc(Cl)ccc23)CC1,
16.3 nM,CN1CCN(Cc2cn(S(=O)(=O)c3cccc(Cl)c3)c3ccccc23)CC1,
6.7 nM,CCN1CCN(Cc2cn(S(=O)(=O)c3ccccc3Br)c3ccc(OC)cc23)CC1,
150 nM,CN1CCN(Cc2cn(S(=O)(=O)c3ccc(OC(F)(F)F)cc3)c3ccccc23)CC1,
312 nM,CN1CCN(Cc2cn(Cc3ccccc3Br)c3ccccc23)CC1,

Ki [1],Compound,other results
30 nM,CN1CCN(Cc2cn(S(=O)(=O)c3ccc(F)cc3F)c3ccccc23)CC1,
194 nM,CSc1ccc2c(c1)c(CN1CCN(C)CC1)cn2S(=O)(=O)c1ccccc1Br,
7.5 nM,O=S(=O)(c1ccccc1)n1cc(CN2CCNCC2)c2ccccc21,
9.6 nM,Cc1ccc(S(=O)(=O)n2cc(CN3CCN(C)CC3)c3ccccc32)cc1,
35.7 nM,CN1CCN(Cc2cn(S(=O)(=O)c3ccccc3)c3cc(Cl)ccc23)CC1,
50 nM,CC(C)c1ccc(S(=O)(=O)n2cc(CN3CCN(C)CC3)c3cc(O)ccc32)cc1,
17 nM,CN1CCN(Cc2cn(S(=O)(=O)c3ccc(F)cc3)c3ccc(Br)cc23)CC1,
2.13 nM,CN1CCN(Cc2cn(S(=O)(=O)c3ccc(Br)cc3)c3ccccc23)CC1,
1.7 nM,CCN1CCN(Cc2cn(S(=O)(=O)c3ccc(C(C)C)cc3)c3ccc(OC)cc23)CC1,
90.5 nM,CN1CCN(Cc2cn(S(=O)(=O)c3ccc(C#N)cc3)c3ccccc23)CC1,
64 nM,Cc1ccc(C)c(S(=O)(=O)n2cc(CN3CCN(C)CC3)c3ccccc32)c1,
29 nM,CN1CCN(Cc2cn(S(=O)(=O)c3ccc(F)cc3Cl)c3ccccc23)CC1,
119 nM,CN1CCN(Cc2cn(S(=O)(=O)c3ccc(F)c(F)c3)c3ccccc23)CC1,
28.2 nM,CN1CCN(Cc2cn(S(=O)(=O)c3ccc(Cl)cc3Cl)c3ccccc23)CC1,
200 nM,CN1CCN(Cc2cn(S(=O)(=O)c3ccccc3Br)c3ccc([N+](=O)[O-])cc23)CC1,
96.3 nM,CN1CCN(Cc2cn(S(=O)(=O)c3ccc(Br)cc3)c3ccc(OCC(F)(F)F)cc23)CC1,
10.2 nM,CN1CCN(Cc2cn(S(=O)(=O)c3ccccc3Br)c3ccccc23)CC1,
,COc1ccc2c(c1)c(CN1CCN(C)CC1)cn2S(=O)(=O)c1ccc(C(C)C)cc1.CS(=O)(=O)O.CS(=O)(=O)O,Activity [2]: inactive; IC50 (Cytochrome P450 3A4): 1850 nM; Activity [3]: inactive; Activity [4]: inactive; bioavailability [5]: 4.9%; Activity [6]: inactive; Activity [7]: Active; Cmax [8]: 56.4 ng/mL; half-life [9]: 1.12 h; AUC(0-t) [10]: 151 ng·h/mL; Vd [11]: 5.3 L/kg; clearance [12]: 54 mL/min/kg; IC50 (Cytochrome P450 2D6): 33500 nM
385 nM,CC(=O)N1CCN(Cc2cn(S(=O)(=O)c3ccccc3Br)c3ccccc23)CC1,
348 nM,COc1ccc2c(c1)c(CN1CCN(C)CC1)nn2S(=O)(=O)c1ccccc1Br,

Ki [1],Compound,other results
5.7 nM,COc1ccc2c(c1)c(CN1CCNCC1)cn2S(=O)(=O)c1ccc(C(C)C)cc1,
12 nM,CN1CCN(Cc2cn(S(=O)(=O)c3ccccc3Br)c3ccc(F)cc23)CC1,
9.2 nM,CC(C)c1ccc(S(=O)(=O)n2cc(CN3CCN(C)CC3)c3c(Cl)cccc32)cc1,
19 nM,CN1CCN(Cc2cn(S(=O)(=O)c3cccc(Br)c3)c3ccccc23)CC1,
31.2 nM,CN1CCN(Cc2cn(S(=O)(=O)c3ccc(F)cc3)c3cccc(Cl)c23)CC1,
58 nM,CN1CCN(Cc2cn(S(=O)(=O)c3cccc(F)c3)c3ccccc23)CC1,
91 nM,COc1ccc(OC)c(S(=O)(=O)n2cc(CN3CCN(C)CC3)c3ccccc32)c1,
64 nM,CN1CCN(Cc2cn(S(=O)(=O)c3c(F)cccc3F)c3ccccc23)CC1,
6 nM,CC(C)c1ccc(S(=O)(=O)n2cc(CN3CCN(C)CC3)c3ccccc32)cc1,
100 nM,CN1CCN(Cc2cn(S(=O)(=O)c3c(Cl)cccc3Cl)c3ccccc23)CC1,
34.9 nM,CN1CCN(Cc2cn(S(=O)(=O)c3ccc(F)cc3)c3ccc(O)cc23)CC1,
4.5 nM,O=S(=O)(c1ccccc1Br)n1cc(CN2CCNCC2)c2ccccc21,
11.5 nM,CN1CCN(Cc2cn(S(=O)(=O)c3cccc4ccccc34)c3ccccc23)CC1,
29.6 nM,COc1ccc2c(c1)c(CN1CCN(C)CC1)c(Cl)n2S(=O)(=O)c1ccc(C(C)C)cc1,
18.4 nM,COc1cccc2c1c(CN1CCN(C)CC1)cn2S(=O)(=O)c1ccc(F)cc1,
133 nM,O=S(=O)(c1ccccc1Br)n1cc(CN2CCN(Cc3ccccc3)CC2)c2ccccc21,
,COc1ccc2c(c1)c(CN1CCN(C)CC1)cn2S(=O)(=O)c1ccc(F)cc1.CS(=O)(=O)O.CS(=O)(=O)O,Activity [2]: inactive; IC50 (Cytochrome P450 3A4): 1710 nM; Activity [3]: inactive; Activity [4]: inactive; bioavailability [5]: 13.5%; Activity [6]: inactive; Cmax [8]: 55 ng/mL; half-life [9]: 2.52 h; AUC(0-t) [10]: 249 ng·h/mL; Vd [11]: 19.2 L/kg; clearance [12]: 92 mL/min/kg; IC50 (Cytochrome P450 2D6): 12600 nM
7.8 nM,CN1CCN(Cc2cn(S(=O)(=O)c3ccccc3F)c3ccccc23)CC1,
95 nM,O=S(=O)(c1ccccc1Br)n1cc(CN2CCNCC2)c2ncccc21,
18.7 nM,CN1CCN(Cc2cn(S(=O)(=O)c3ccccc3Br)c3ccc(O)cc23)CC1,

Compound,Ki [1],other results
CN1CCN(Cc2c[nH]c3ccccc23)CC1,482 nM,
CN1CCN(CCc2cn(S(=O)(=O)c3cccc(Br)c3)c3ccc(Br)cc23)CC1,289 nM,
CN1CCN(CCc2cn(S(=O)(=O)c3ccccc3Br)c3ccc(Br)cc23)CC1,398 nM,
